Experimental data taken from patent US20030054535A1, “Endoglucanase mutants and mutant hydrolytic depolymerizing enzymes and uses thereof” (priority 1999, published 2003).
“And” between values parts separate entries of the source, which are not always exact repeats. Equal values may be shown once.

Key:
Type in all cases: biochemical
[1] = target: T1, Acidothermus cellulolyticus EI endoglucanase (Cel5A) catalytic domain, wild type (native), SEQ ID NO:3 of U.S. Pat. No. 5,536,655 (Acidothermus cellulolyticus, UniProt P54583); assay: Inhibition by cellobiose of hydrolysis of 4-methylumbelliferyl-β-D-cellobioside (MUC), wild type; conditions: Ki for inhibition by cellobiose, substrate MUC 4 and 20 μM, 30 min, cellobiose 0 to 5 mM, Dixon plots
T1 construct: the mutant and wild type Cel5A catalytic domains were purified using the purification methods described above; made in house; host or cells: E. coli XL1-blue
T1 sequence (P54583 42-400): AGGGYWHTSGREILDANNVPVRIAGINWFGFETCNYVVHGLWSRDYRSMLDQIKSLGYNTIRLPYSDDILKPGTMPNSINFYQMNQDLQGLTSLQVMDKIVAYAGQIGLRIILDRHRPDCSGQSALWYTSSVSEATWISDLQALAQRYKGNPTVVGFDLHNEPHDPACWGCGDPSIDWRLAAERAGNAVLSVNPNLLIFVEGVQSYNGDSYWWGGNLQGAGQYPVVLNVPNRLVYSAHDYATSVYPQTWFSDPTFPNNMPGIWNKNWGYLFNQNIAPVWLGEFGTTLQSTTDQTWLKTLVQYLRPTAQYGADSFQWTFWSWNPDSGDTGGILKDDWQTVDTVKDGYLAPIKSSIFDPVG
Experimental: (§1) The enzymes (0.682 ng) were incubated for 30 min with the substrate at each of two concentrations (4 and 20 μM), in the presence of D-cellobiose (Sigma, St. Louis) )at concentrations ranging from 0 to 5 mM for the wild type catalytic domain, and from 0 to 50 mM for the Y245G mutant. At the end of the incubation period, the reaction in each 1-mL assay mixture was terminated by addition of 2 mL of 0.5 M sodium carbonate, pH 10.0. The extent of hydrolysis was then determined from the fluorescence of the ionized product, 4-methylumbelliferone, as measured in a SPEX FLUOROLOG spectrofluorometer with excitation wavelength at 380 nm and emission wavelength at 455 nm. These studies established that under these conditions, […]. Inhibition constants were then determined by means of Dixon plots of reciprocal velocity versus inhibitor concentration (Segel, 1975).
(§2) The mutant Cel5A enzyme, Y245G, was generated by PCR mutagenesis, and the mutant and wild type Cel5A catalytic domains were purified using the purification methods described above. […] For this reason, the molar extinction coefficients of the recombinant enzymes were calculated by considering the specific change in amino acid composition.

[2] = target: T2, Acidothermus cellulolyticus EI endoglucanase (Cel5A) catalytic domain variant Y245G, SEQ ID NO:3 (Acidothermus cellulolyticus, UniProt P54583, Y286G); assay: Inhibition by cellobiose of hydrolysis of 4-methylumbelliferyl-β-D-cellobioside (MUC), Y245G mutant
T2 construct: the mutant and wild type Cel5A catalytic domains were purified using the purification methods described above; made in house; host or cells: E. coli XL1-blue
T2 sequence (P54583 42-399 Y286G): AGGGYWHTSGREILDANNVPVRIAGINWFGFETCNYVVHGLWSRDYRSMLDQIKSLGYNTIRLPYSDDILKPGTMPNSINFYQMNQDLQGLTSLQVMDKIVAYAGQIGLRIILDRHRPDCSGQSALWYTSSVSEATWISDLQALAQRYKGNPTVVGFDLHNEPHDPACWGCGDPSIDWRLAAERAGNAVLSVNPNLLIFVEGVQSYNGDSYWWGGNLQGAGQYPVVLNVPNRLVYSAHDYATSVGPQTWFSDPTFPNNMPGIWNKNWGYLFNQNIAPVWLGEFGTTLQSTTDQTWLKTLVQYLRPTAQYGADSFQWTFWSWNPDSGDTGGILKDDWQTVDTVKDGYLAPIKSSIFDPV
Experimental: as §1, §2

[3] = target: T3, Acidothermus cellulolyticus EI endoglucanase (Cel5A) catalytic domain variant W42R, SEQ ID NO:1 (Acidothermus cellulolyticus, UniProt P54583, W83R); assay: Michaelis-Menten kinetics of cellotriose hydrolysis (cellobiose release), EIW42R; conditions: relative to native enzyme
T3 construct: the protein was genetically truncated near the beginning of the linker peptide; made in house; host or cells: E. coli XL1-blue
T3 sequence (P54583 42-399 W83R): as the sequence (P54583 42-399 Y286G) above, with W42R, G245Y counted along it
Experimental: (§3) Each assay mixture was pre-incubated at 50 degrees C. for 10 min. prior to the addition of 0.00272 micromolar (0. 1092 microgram/mL) enzyme, which was also made up in 5 mM acetate buffer with 10 microgram/mL BSA. The final assay volume was 0.1 mL.
(§4) At set-time intervals, an aliquot of the reaction mixture was pulled and immediately analyzed for the release of cellobiose using a Dionex DX300 chromatography system and a Dionex PAD2 pulsed amperometric detector having a gold working electrode. The response of this detector was optimized for the detection of carbohydrates using a waveform defined by the following time and potential settings: t1=420 msec.; EI=+0.05 V; t2=180 msec.; E2=+0.75 V; t3=360 msec.; and E3=−0.15 V. Separation of the reaction products, from the substrate, was achieved on a Dionex CarboPac PA-1 analytical (4×250 mm) column equipped with CarboPac PA-1 ([…], 500 mM sodium hydroxide eluent, and a flow rate of 1.5 mL/min. The amount of cellobiose present for each time-point-sample was quantified by comparing the area of the cellobiose peak against a linear calibration curve. The kinetic constants were determined with a double-reciprocal-plot, where the reciprocal of the rate of cellobiose produced was plotted as a function of the inverse of the substrate concentration.
(§5) Michaelis-Menten kinetics of the mutant EI enzymes and the native enzyme were determined.

[4] = target: T4, Acidothermus cellulolyticus EI endoglucanase (Cel5A) catalytic domain variant Y82R, SEQ ID NO:2 (Acidothermus cellulolyticus, UniProt P54583, Y123R); assay: Michaelis-Menten kinetics of cellotriose hydrolysis (cellobiose release), EIY82R; conditions: relative to native enzyme
T4 construct: the protein was genetically truncated near the beginning of the linker peptide; made in house; host or cells: E. coli XL1-blue
T4 sequence (P54583 42-399 Y123R): as the sequence (P54583 42-399 Y286G) above, with Y82R, G245Y counted along it
Experimental: as §3, §4, §5

Row | SMILES | Ki [1] | Ki ([2]; Ki for inhibition by cellobiose, substrate MUC 4 and 20 μM, 30 min, cellobiose 0 to 50 mM, Dixon plots) | decrease in apparent binding energy of cellobiose versus native enzyme ([2]; from increase in Ki, Y245G relative to wild type) | Vmax, % higher than that of the native enzyme [3] | Vmax, % higher than that of the native enzyme [4] [%]
1 | OC[C@H]1O[C@@H](O[C@H]2[C@H](O)[C@@H](O)C(O)O[C@@H]2CO)[C@H](O)[C@@H](O)[C@@H]1O (stereo partly drawn) [cellobiose, D-cellobiose] | 1.88 mM and 2 mM | 29.7 mM and 30 mM | 1.7 kcal/mol and ~1.5 kcal/mol |  | 
2 | OC[C@H]1O[C@@H](O[C@H]2[C@H](O)[C@@H](O)[C@H](O[C@H]3[C@H](O)[C@@H](O)C(O)O[C@@H]3CO)O[C@@H]2CO)[C@H](O)[C@@H](O)[C@@H]1O (some centres unmarked) [cellotriose] |  |  |  | about 15% | ~75
